Test results reported in patent US9096615B2, “Bridged bicyclic amino thiazine dioxide compounds as inhibitors of beta-secretase and methods of use thereof” (AMGEN INC., priority 2013, dated 2015).
pIC50: −log10 of the molar value.

What was measured:
BACE1 = BACE1 (Homo sapiens, UniProt P56817); experiment: In vitro enzymatic BACE FRET assay; type: biochemical; details: average IC50; read-out: BACE1 Enzyme assay IC50
Summary of the method: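 BACE (0.2 nM) pre-incubated 1 h with serially diluted inhibitor in 0.05 M acetate pH 4.2, 10% DMSO, 100 uM genapol; 50 nM FRET peptide substrate added, 1 h incubation. Stopped with Tris to neutral pH; fluorescence read (ex 488, […]).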

[1] = test system: Aβ40 in conditioned medium of cells stably expressing Amyloid Precursor Protein (APP); experiment: In vitro BACE cell-based assay (HEK cell assay, Aβ40 sandwich ELISA); details: Homo sapiens, HEK293; average IC50; read-out: BACE1 cell assay IC50
Summary of the method: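 APP-stable cells were cultured 24 h at 37 °C, then given compound as 10-point dose-response (top 100 μM or 10 μM; 0.1% DMSO final) for 24 h. Aβ40 in conditioned medium was measured by sandwich ELISA (pAb40 capture, biotinylated 6E10 detection, Eu time-resolved fluorescence). IC50 from percent inhibition versus concentration.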

human Bace2 protein = biological target: T1, human Bace2 protein (Homo sapiens, UniProt Q9Y5Z0); experiment: In vitro enzymatic BACE2 FRET assay; type: biochemical; details: average IC50; read-out: BACE2 Enzyme assay IC50
T1 construct: V5 (C); 6-His (C)
T1 sequence (Q9Y5Z0 63-518): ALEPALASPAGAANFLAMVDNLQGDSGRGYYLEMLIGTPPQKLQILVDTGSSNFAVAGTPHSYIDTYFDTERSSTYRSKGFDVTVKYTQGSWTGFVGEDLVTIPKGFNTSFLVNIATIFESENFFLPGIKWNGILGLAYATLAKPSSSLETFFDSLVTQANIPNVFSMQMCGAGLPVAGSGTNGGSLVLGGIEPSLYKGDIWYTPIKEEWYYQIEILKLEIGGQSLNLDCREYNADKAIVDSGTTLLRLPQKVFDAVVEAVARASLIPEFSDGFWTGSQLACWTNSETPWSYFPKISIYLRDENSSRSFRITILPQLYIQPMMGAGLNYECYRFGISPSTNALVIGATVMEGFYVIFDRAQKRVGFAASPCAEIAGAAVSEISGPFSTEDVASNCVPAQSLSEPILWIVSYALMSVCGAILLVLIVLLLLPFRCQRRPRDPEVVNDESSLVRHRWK
Summary of the method: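 Human Bace2 with C-terminal V5/6-His tag (0.2 nM) pre-incubated 1 h with inhibitor in 0.05 M acetate pH 4.2, 10% DMSO, 100 uM genapol; reaction started with 50 nM FRET peptide substrate, run 1 h. Stopped with Tris to neutral pH; fluorescence increase from substrate cleavage measured.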

BACE1, sequence (P56817 46-501, species assumed): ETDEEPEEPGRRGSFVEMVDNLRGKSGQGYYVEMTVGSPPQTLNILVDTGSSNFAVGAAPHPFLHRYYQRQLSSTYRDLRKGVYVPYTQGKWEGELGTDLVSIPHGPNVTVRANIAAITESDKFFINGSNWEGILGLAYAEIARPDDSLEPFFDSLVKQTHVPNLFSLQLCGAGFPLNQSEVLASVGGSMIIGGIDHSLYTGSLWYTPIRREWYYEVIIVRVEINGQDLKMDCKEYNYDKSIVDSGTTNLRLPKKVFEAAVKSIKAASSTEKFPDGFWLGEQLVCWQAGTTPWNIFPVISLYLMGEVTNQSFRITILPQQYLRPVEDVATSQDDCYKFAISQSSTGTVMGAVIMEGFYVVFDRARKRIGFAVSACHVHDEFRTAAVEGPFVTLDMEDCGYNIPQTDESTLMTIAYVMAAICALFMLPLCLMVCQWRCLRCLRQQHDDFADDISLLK

pIC50 (BACE1) | pIC50 [1] | pIC50 (human Bace2 protein) | SMILES
9.00 | 9.40 | 7.70 | C[C@]1(c2cc(Nc3nccc4nc(OCc5ncco5)cnc34)ccc2F)N=C(N)[C@@]2(C)CC[C@@H]1S2(=O)=O [Example 140, N-(3-((1S,2R,5R)-4-amino-2,5-dimethyl-8,8-dioxido-8-thia-3-azabicyclo[3.2.1]oct-3-en-2-yl)-4-fluorophenyl)-2-(1,3-oxazol-2-ylmethoxy)pyrido[3,4-b]pyrazin-5-amine]
7.96 | 8.22 | 7.17 | C[C@]1(c2cc(Nc3ncnc4cc(C(F)(F)F)cnc34)ccc2F)N=C(N)[C@@]2(C)CC[C@@H]1S2(=O)=O [Example 106, N-(3-((1S,2R,5R)-4-amino-2,5-dimethyl-8,8-dioxido-8-thia-3-azabicyclo[3.2.1]oct-3-en-2-yl)-4-fluorophenyl)-7-(trifluoromethyl)pyrido[3,2-d]pyrimidin-4-amine]
